The results in this text go back to patent US10035790B2, “RORγ modulators” (BRISTOL-MYERS SQUIBB COMPANY, priority 2012, dated 2018).

In the assay the target is T1, ligand binding domain of human RORγ (A262-S507) (Homo sapiens, UniProt P51449).
T1 construct: made in house; host or cells: E. coli
T1 sequence (P51449 262-507): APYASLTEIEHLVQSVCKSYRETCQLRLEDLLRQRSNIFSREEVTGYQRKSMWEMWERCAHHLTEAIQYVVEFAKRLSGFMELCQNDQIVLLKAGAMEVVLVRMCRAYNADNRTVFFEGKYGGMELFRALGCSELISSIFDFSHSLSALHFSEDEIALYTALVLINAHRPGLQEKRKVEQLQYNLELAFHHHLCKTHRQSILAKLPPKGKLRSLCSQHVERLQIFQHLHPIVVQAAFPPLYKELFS
Description: General RORγ SPA binding assay (competition with [3H]25-hydroxycholesterol). As to conditions: RORγ SPA binding assay, inhibition of [3H]25-hydroxycholesterol binding; read-out: IC50. The protocol: Example 2 General RORγ SPA Binding Assay
The binding of potential ligands to RORγ is measured by competition with [^3H]25-hydroxycholesterol using a scintillation proximity assay (SPA) binding assay. The ligand binding domain of human RORγ (A262-S507) with an N-terminal His tag is expressed in E. coli and purified using nickel affinity chromotography. 50 nM RORγ (A262-S507) is incubated with test compound at varying concentrations for 15 min at room temperature in PBS buffer containing 0.5% fatty acid free BSA. […] of [^3H]25-hydroxycholesterol is then added, and the reaction is incubated for 15 min. 4 mg/mL of Ysi Copper HIS-TAG SPA Beads (Perkin Elmer) are added, and the mixture is incubated for 30 min. The reaction is read on a MicroBeta Trilux scintillation plate reader (Perkin Elmer). IC50 values are determined from the percentage inhibition of [^3H]25-hydroxycholesterol binding.
Turning to `Cc1cc(C)cc(CNC(=O)c2cnc(C)nc2C2CCN(C(=O)Cc3cccc4ccccc34)CC2)c1` [Compound A19, N-(3,5-dimethylbenzyl)-2-methyl-4-(1-(2-(naphthalen-1-yl)acetyl)piperidin-4-yl)pyrimidine-5-carboxamide], the IC50 came to 155 nM.
The value for `Cc1ncc(C(=O)NCCOc2ccccc2)c(C2CCN(C(=O)Cc3c(F)cccc3F)CC2)n1` [Compound A20, 4-(1-(2-(2,6-difluorophenyl)acetyl)piperidin-4-yl)-2-methyl-N-(2-phenoxyethyl)pyrimidine-5-carboxamide] was 158 nM.
Consider `O=C(NCc1ccc(Cl)c(Cl)c1)c1cnc(C(F)(F)F)nc1C1CCN(C(=O)Cc2c(F)cccc2F)CC1` [Compound A21, N-(3,4-dichlorobenzyl)-4-(1-(2-(2,6-difluorophenyl)acetyl)piperidin-4-yl)-2-(trifluoromethyl)pyrimidine-5-carboxamide], for which the IC50 is 209 nM.
The figure for `Cc1cc(C)cc(CNC(=O)c2cnc(C)nc2C2CCN(C(=O)Cc3cccc(F)c3)CC2)c1` [Compound A22, N-(3,5-dimethylbenzyl)-4-(1-(2-(3-fluorophenyl)acetyl)piperidin-4-yl)-2-methylpyrimidine-5-carboxamide] is 235 nM; for `Cc1cc(C)cc(CNC(=O)c2cnc(C)nc2C2CCN(C(=O)c3ccccc3F)CC2)c1` [Compound A23, N-(3,5-dimethylbenzyl)-4-(1-(2-fluorobenzoyl)piperidin-4-yl)-2-methylpyrimidine-5-carboxamide] it is 254 nM.
`Cc1cc(C)cc(CNC(=O)c2cnc(C)nc2C2CCN(C(=O)c3ccccc3Cl)CC2)c1` [Compound A24, 4-(1-(2-chlorobenzoyl)piperidin-4-yl)-N-(3,5-dimethylbenzyl)-2-methylpyrimidine-5-carboxamide]: the IC50 came out at 215 nM.
Regarding `Cc1cc(C)cc(CNC(=O)c2cnc(C)nc2C2CCN(C(=O)Cc3ccccc3)CC2)c1` [Compound A25, N-(3,5-dimethylbenzyl)-2-methyl-4-(1-(2-phenylacetyl)piperidin-4-yl) pyrimidine-5-carboxamide], the IC50 worked out at 267 nM.
With `Cc1cc(C)cc(CNC(=O)c2cnc(C)nc2C2CCN(C(=O)[C@@H](C)c3ccccc3)CC2)c1` [Compound A26, (S)-N-(3,5-dimethylbenzyl)-2-methyl-4-(1-(2-phenylpropanoyl)piperidin-4-yl)pyrimidine-5-carboxamide], the IC50 came out at 446 nM.
On to `Cc1cc(C)cc(CNC(=O)c2cnc(C)nc2C2CCN(C(=O)Cc3cc(F)cc(F)c3)CC2)c1` [Compound A27, 4-(1-(2-(3,5-difluorophenyl)acetyl)piperidin-4-yl)-N-(3,5-dimethylbenzyl)-2-methylpyrimidine-5-carboxamide], for which the IC50 worked out at 720 nM.
With `CC(C)c1ncc(C(=O)NCc2ccc(Cl)c(Cl)c2)c(C2CCN(C(=O)Cc3c(F)cccc3F)CC2)n1` [Compound A28, N-(3,4-dichlorobenzyl)-4-(1-(2-(2,6-difluorophenyl)acetyl)piperidin-4-yl)-2-isopropylpyrimidine-5-carboxamide], the IC50 was 1030 nM.
In the case of `Cc1cc(C)cc(CNC(=O)c2cnc(C)nc2C2CCN(C(=O)Cc3ccc(F)cc3)CC2)c1` [Compound A29, N-(3,5-dimethylbenzyl)-4-(1-(2-(4-fluorophenyl)acetyl)piperidin-4-yl)-2-methylpyrimidine-5-carboxamide], the IC50 was 1090 nM.
On to `Cc1cc(C)cc(CNC(=O)c2cnc(C)nc2C2CCN(C(=O)Cc3cccc(C)c3)CC2)c1` [Compound A30, N-(3,5-dimethylbenzyl)-2-methyl-4-(1-(2-(m-tolyl)acetyl)piperidin-4-yl) pyrimidine-5-carboxamide], for which the IC50 was found to be 1450 nM.
As to `Cc1cc(C)cc(CNC(=O)c2cnc(C)nc2C2CCN(C(=O)C3(c4ccccc4F)CCCC3)CC2)c1` [Compound A31], the IC50 was found to be 1630 nM.

The IC50 is the concentration that inhibits the measured activity by half.
